The experiment addresses T1, Peroxisome proliferator-activated receptor gamma (Homo sapiens, UniProt P37231).
T1 sequence (P37231 whole entry): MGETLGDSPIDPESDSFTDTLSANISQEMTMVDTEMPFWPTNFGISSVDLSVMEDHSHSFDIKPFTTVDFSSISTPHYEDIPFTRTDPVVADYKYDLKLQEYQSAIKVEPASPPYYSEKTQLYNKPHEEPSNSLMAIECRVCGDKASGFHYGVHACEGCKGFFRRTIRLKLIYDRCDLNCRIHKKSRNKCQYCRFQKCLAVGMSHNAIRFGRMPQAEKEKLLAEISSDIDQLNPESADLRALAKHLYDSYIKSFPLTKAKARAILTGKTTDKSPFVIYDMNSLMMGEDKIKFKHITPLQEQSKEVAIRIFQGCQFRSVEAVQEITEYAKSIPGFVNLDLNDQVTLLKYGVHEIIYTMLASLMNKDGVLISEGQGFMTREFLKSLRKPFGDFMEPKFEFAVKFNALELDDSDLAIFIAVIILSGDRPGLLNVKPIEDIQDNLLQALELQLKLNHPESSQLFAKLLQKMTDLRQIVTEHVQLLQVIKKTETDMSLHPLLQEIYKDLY
Briefly: Antagonist actvity in sGFP-tagged PPARgamma LBD (unknown origin) assessed as inhibition of rosiglitazone-induced PPARgamma activation incubated for 1 hr in presence of CBP-1 cofactor peptide by HTRF based cofactor recruitment assay.

This note sets out measurements from ChEMBL document CHEMBL4364346, “Structure optimization of a new class of PPARγ antagonists” (Bioorg Med Chem, 2019).

The IC50 is the concentration that gives 50% inhibition. For `CCC/C(=C\c1cc(OCc2ccc3nc(C(F)(F)F)cc(OC)c3c2)ccc1OCCN1CCN(C)CC1)C(=O)O`, the IC50 is 6.4 µM.
